The values below come from patent US20110319360A1, “Method of including apoptosis/Cell death in leukemia cell using a purine nucleoside analogue” (U.S. Department of Veterans Affairs, priority 2010, published 2011).

Where two headings read alike, the source gives them in different places.

Data set [1] concerns normal PBMCs. Description: MTS cytotoxicity assay on PBMCs from normal donors. Format: cell-based, human. The conditions noted are these: for EC50: Homo sapiens, PBMC, read-out: ED50 (μM), PBMC. On the procedure: For toxicity studies involving normal blood cells, normal volunteers were enrolled in an IRB-approved protocol for blood collection. PBMCs were isolated from heparin-anticoagulated blood by ficoll-Hypaque density gradient centrifugation.
(§1) 2.5×10^5 CLL cells were incubated in triplicate or quadruplicate in a 96-well tissue culture plate (Costar, Corning, N.Y.) with serial dilutions of LMP-420, fludarabine, and/or recombinant TNF-alpha (R&D Systems, Minneapolis, Minn.) in Hybridoma serum free media (SFM) (GIBCO/Invitrogen, Carlsbad, Calif.) containing 10% heat-inactivated fetal bovine serum (FBS) (Sigma) at 37° C. with 5% CO2. After 72 hours, 20 μl CellTiter 96® AQueous One Solution Cell Proliferation Assay (Promega, Madison, Wis.) MTS (3-(4,5 dimethylthiazol-2-yl)-5-(3-carboxymethoxyphenyl-2-(4-sulfophenyl)-2H-tetrazolium) reagent was added to each well and the absorbance was read at 490 nm on a Thermomax microplate reader (Molecular Devices, Sunnyvale, Calif.). We calculated fractional cytotoxicity as performed previously (Reference 12), comparing absorbance at 490 nm from treated cells to control cells incubated with media alone.
(§2) The concentration effective at killing 50% of CLL cells compared to media alone (ED50) was calculated when 50% fractional cytotoxicity occurred within the range of serial dilutions tested (Reference 12). If the ED50 fell below or above this range, it was set to either the lowest or the highest concentration tested, respectively, for the purposes of statistical analyses and graphical representation.

Data set [2] concerns normal PBMCs. Description: [3H]-thymidine proliferation assay, mitogen-stimulated normal PBMCs. Format: cell-based, human. The conditions noted are these: Homo sapiens, PBMC, 96 h. On the procedure:
CLL cells (2×10^5 cells/well) were cultured in quadruplicate in a volume of 200 μl in 96-well tissue culture plates for 96 hours with 1 μM CpG-oligodeoxynucleotides (ODN) DSP30 (Reference 14) (Midland Certified Reagent Company, Midland, Tex.) and 100 units/ml IL-2 (R&D Systems) in the presence or absence of drug. As controls, cells were treated with media without DSP30/IL-2. Cells were incubated with 1 μCi/well [methyl-^3H]-thymidine (specific activity 6.7 Ci/mmol, PerkinElmer, Waltham, Mass., USA) for 14-18 hours prior to harvesting onto glass-fiber filters using a semi-automated cell harvester. [^3H]-thymidine incorporation was measured as counts per minute (cpm) using a Tri-Carb 2100 timed-resolved liquid scintillation counter (PerkinElmer). The same protocol was utilized for proliferation assays with normal PBMCs, with the exception that growth was stimulated by treatment with 10 μg/ml Phytohemagglutinin-P (PHA, Sigma), 5 μg/ml concanavalin A (ConA, Sigma), 2 μg/ml pokeweed mitogen (PWM, Sigma), 25 ng/ml muromonab-CD3 (α-CD3, Ortho Pharmaceuticals, Raritan, N.J.), or 50 ng/ml phorbol myristate acetate (PMA, Sigma) plus 1 μg/ml ionomycin (iono, Sigma) for 96 hours. Proliferation is reported as percent of control (drug-treated cpm/control-treated cpm×100%).

For data set [3], the system named is CD34+ hematopoietic progenitor cells (erythroid colonies). The experiment in a line: Colony formation assay, erythroid colonies. It counts as cell-based, human. The conditions noted are these: Homo sapiens, 336 h, read-out: mean IC50 for normal erythroid colony formation. As for the experimental part: (§3) CD34^+ hematopoietic progenitor cells were isolated from PBMCs from two healthy donors using the CD34 Microbead Kit (Miltenyi Biotec, Auburn, Calif.). 10^3 CD34^+-enriched cells were cultured in a 35 mm culture plate (1000 cells/plate) with or without LMP-420 or fludarabine in 1.1 ml Human Methylcellulose Complete Media (R&D Systems) according to the manufacturer's protocol. Plates were incubated for 14 days at 37° C. in humidified 5% CO2. Each treatment group was tested in triplicate. Colonies on plates were scored by two independent observers, blinded to the treatment groups, by microscopic evaluation under 10× and 20× power. Colonies were categorized as being of either erythroid or myeloid lineage.

The test system of the next data set is CLL cells. Description: MTS cytotoxicity assay on primary CLL cells. It counts as cell-based. The conditions noted are these: Homo sapiens, CLL cell, 72 h. As for the experimental part: On the same day that heparin-anticoagulated venous blood was collected from participants, CLL cells were purified by methods described previously (Reference 11). Briefly, CLL cells were isolated from whole blood using the RosetteSep® B-cell enrichment cocktail (Stem Cell Technologies, Vancouver, BC, Canada) together with ficoll-Hypaque density gradient centrifugation. This method yielded CLL cell purity of greater than 95% CD5^+CD19^+ B-cells.
as §1, §2
Background: Tetrazolium dyes change colour on reduction, which living cells bring about.

The test system of a further data set is CD19-positive B-cell. Description: Annexin V apoptosis of normal B-lymphocytes in PBMCs. Format: cell-based, human. To be noted: 72 hours. As for the experimental part: (§4) PBMCs were cultured at 10^6 cells/ml in a 12-well tissue culture plate. Cells were treated for 72 hours with vehicle control or drug for 72 hours, then harvested as above for staining. PBMCs were resuspended at 2×10^5 cells/tube in 100 μl buffer (HBSS, 0.5% bovine serum albumin, 0.1% sodium azide) and incubated for 30 min with CD3-FITC or CD19-FITC antibodies according to the manufacturer's protocol (BD Biosciences). Cells were then incubated with PE-annexin V and 7-AAD (BD Biosciences) in annexin V binding buffer (BD Biosciences) for 15 minutes prior to analysis of apoptosis on the Guava EasyCyte™ Plus system.

The test system of a further data set is CD3-positive T-cell. The experiment in a line: Annexin V apoptosis of normal T-lymphocytes in PBMCs. It counts as cell-based, human. The conditions noted are these: 72 hours. As for the experimental part:
as §4

Data set [4] concerns CD34+ hematopoietic progenitor cells (myeloid colonies). The experiment in a line: Colony formation assay, myeloid colonies. Format: cell-based, human. To be noted: Homo sapiens, 336 h, read-out: mean IC50 for normal myeloid colony formation. On the procedure: as §3
The mark [5] stands for this setting: read-out: IC50 for suppression of mitogen-induced proliferation, Con A, 96 hours.
The mark [6] stands for this setting: read-out: IC50 for suppression of mitogen-induced proliferation, PHA, 96 hours.
Setting [7] is: read-out: IC50 for suppression of mitogen-induced proliferation, PMA/Iono, 96 hours.
Setting [8] is: read-out: IC50 for suppression of mitogen-induced proliferation, PWM, 96 hours.
Where [9] appears, read: read-out: IC50 for suppression of mitogen-induced proliferation, α-CD3, 96 hours.
Where [10] appears, read: Con A, 96 hours, read-out: IC50 for suppression of mitogen-induced proliferation.
[11] abbreviates: PWM, 96 hours, read-out: IC50 for suppression of mitogen-induced proliferation.
Where [12] appears, read: mean, PBMCs from healthy blood donors (n = 3-6).

For “4-hydroperoxycyclophosphamide [Cyclophosphamide/4-HC]”, in the data set with normal PBMCs [1], the “Therapeutic Index (PBMC ED50/CLL ED50)” value came out at 1.7.

With `Cn1c(CCCC(=O)O)nc2cc(N(CCCl)CCCl)ccc21` [Bendamustine, bendamustine], the IC50 came to 16 µM with normal PBMCs [2] (setting [5]); 17 µM in the data set on normal PBMCs [2] (setting [6]); 35 µM in the data set on normal PBMCs [2] (setting [7]); 14 µM with normal PBMCs [2] (setting [8]); 20 µM in the data set with normal PBMCs [2] (setting [9]). For the same molecule, the “Therapeutic Index (PBMC ED50/CLL ED50)” value in the data set with normal PBMCs [1] came out at 29.2. For the same molecule, the EC50 in the data set with normal PBMCs [1] amounted to 146 µM.

On to `O=C(O)CCCc1ccc(N(CCCl)CCCl)cc1` [Chlorambucil], for which the IC50 with normal PBMCs [2] (setting [5]) was determined as 12 µM; in the data set with normal PBMCs [2] (setting [6]), 11 µM; in the data set with normal PBMCs [2] (setting [7]) it was 7 µM; with normal PBMCs [2] (setting [8]) it was 7.5 µM; in the data set on normal PBMCs [2] (setting [9]), 12.5 µM. Besides, the “Therapeutic Index (PBMC ED50/CLL ED50)” value in the data set on normal PBMCs [1] is 22.6. Besides, in the data set on normal PBMCs [1], the EC50 was found to be 67.7 µM.

Take `Nc1nc(Cl)nc2c1ncn2[C@H]1C[C@H](O)[C@@H](CO)O1` [Cladribine, cladribine]: the IC50 came out at 0.15 µM in the data set with normal PBMCs [2] (setting [10]) and 0.1 µM in the data set on normal PBMCs [2] (setting [11]). Also, the “Therapeutic Index (PBMC ED50/CLL ED50)” value with normal PBMCs [1] is listed as 10. In addition, in the data set on normal PBMCs [1] (setting [12]), the EC50 was 0.1 µM.

With `Nc1nc(F)nc2c1ncn2[C@@H]1O[C@H](COP(=O)(O)O)[C@@H](O)[C@@H]1O` [Fludarabine, fludarabine phosphate, reference compound], the IC50 was 5 µM in data set [3]; < 3 µM in the data set with normal PBMCs [2] (setting [10]); < 3 µM with normal PBMCs [2] (PHA, 96 hours, read-out: IC50 for suppression of mitogen-induced proliferation); 0.8 µM in the data set on normal PBMCs [2] (PMA/Iono, 96 hours, read-out: IC50 for suppression of mitogen-induced proliferation); < 3 µM with normal PBMCs [2] (setting [11]); < 3 µM in the data set with normal PBMCs [2] (α-CD3, 96 hours, read-out: IC50 for suppression of mitogen-induced proliferation). In addition, the IC50 in data set [4] was found to be 1 µM. For the same molecule, the EC50 came to 0.252 µM with CLL cells (read-out: Median ED50 of fludarabine, 62 nM of LMP-420 added, 72 hours, 21 patient samples); 0.125 µM with CLL cells (read-out: Median ED50 of fludarabine, 250 nM of LMP-420 added, 72 hours, 21 patient samples); 0.978 µM with CLL cells (read-out: Median ED50 of fludarabine, no LMP-420 added, 72 hours, 21 patient samples); 3.1 µM in the data set with normal PBMCs [1] (setting [12]). Further, the “apoptosis in normal B-cells” value in the data set on CD19-positive B-cell (0.4 μM) was “caused significant apoptosis”. For the same molecule, the “average percent drug-specific apoptosis, B-cells” value in the data set with CD19-positive B-cell (1 μM, n=3) is reported as 70%. The “apoptosis in normal T-cells” value with CD3-positive T-cell (0.4 μM) is on record as “caused significant apoptosis”. For the same molecule, in the data set with CD3-positive T-cell (1 μM, n=3), the “average percent drug-specific apoptosis, T-cells” value is 81%. Further, in the data set on normal PBMCs [1], the “Therapeutic Index (PBMC ED50/CLL ED50)” value is listed as 2.6.
